The data set is described as follows: solubility and pH-dependent separation of the carbenoxolone/chlorhexidine complex. The data set is classed as physicochemical.

Turning to `[H]/N=C(\N/C(=N/[H])NCCCCCCNC(=N)NC(=N)Nc1ccc(Cl)cc1)Nc1ccc(Cl)cc1` [chlorhexidine], the “behaviour of the complex suspension at high pH” value (pH 9.0 or more) is given as “can be separated by filtration”. In addition, the “behaviour of the complex suspension at low pH” value (pH less than 3.5 / 3.5 or less) is on record as “will remain in solution”.

These data come from EP0396317B1, “Pharmaceutical composition” (priority 1989, dated 1990).
